Reference: ChEMBL document CHEMBL1201862, “PubChem BioAssay data set” (2004)
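Assay format: 96-well plates, 48-hour exposure. The concentration for 50% growth inhibition is given as GI50.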 Active and inactive are the calls of the source. Rule as the data show it: active = GI50 up to about 1.1 µM and inactive = higher. Where a SMILES comes first, the peptide text is derived from it. The star is where a group is joined. Boc = CC(C)(C)OC(=O)*; nBu = CCCC*

Legend:
Test in all cases: NCI anticancer screen, dose series, 48 h
[1] = test system: 786-0
[2] = test system: A498
[3] = test system: A549
[4] = test system: CCRF-CEM
[5] = test system: COLO 205
[6] = test system: EKVX
[7] = test system: HL-60
[8] = test system: MCF7
[9] = test system: MDA-MB-231
[10] = test system: MDA-MB-435
[11] = test system: MOLT-4
[12] = test system: NCI-H226
[13] = test system: NCI-H23
[14] = test system: OVCAR-4
[15] = test system: SF-268
[16] = test system: SK-MEL-2
[17] = test system: SK-MEL-5
[18] = test system: UACC-62
[19] = test system: UO-31
[20] = test system: SF-295

Measured: GI50

CC(C)C1=CC23CCC4C(C)(C(=O)O)CCCC4(C)C2CC1C1C(=O)N(CCCCCCN2C(=O)C4C5CC6C7(C)CCCC(C)(C(=O)O)C7CCC6(C=C5C(C)C)C4C2=O)C(=O)C13 (stereo not drawn)
inactive: [1] > 10 µM | [2] 11.6 µM | [3] 9.31 µM | [4] 7.29 µM | [5] > 10 µM | [6] 7.4 µM | [7] 13.5 µM | [8] 6.76 µM | [9] 15.3 µM | [10] 4.54 µM | [11] 6.17 µM | [12] > 10 µM | [13] 2.74 µM | [14] 15.7 µM | [15] 13.4 µM | [16] 13.8 µM | [17] 14 µM | [18] 37.8 µM | [19] > 10 µM

C/C(=C1\C(=O)C(c2ccccc2)N(c2ccccc2)C1=O)c1ccc(Cl)cc1 (stereo not drawn)
inactive: [1] 18.3 µM | [2] 16.7 µM | [3] 18.2 µM | [5] 16.8 µM | [6] 30.8 µM | [7] 28.6 µM | [8] 35.1 µM | [9] 22.3 µM | [10] 17.4 µM | [11] 31.6 µM | [12] 18.4 µM | [13] 17.1 µM | [14] 21.5 µM | [15] 18.7 µM | [20] 20 µM | [16] 20.1 µM | [17] 14.5 µM | [18] 16.3 µM | [19] 19.8 µM

C#CCCCC(=C)C[C@H](OCc1ccccc1)[C@H]1OC(=O)[C@@H]1C
inactive: [2] > 100 µM | [3] 56.4 µM | [4] > 100 µM | [6] > 100 µM | [7] 66.1 µM | [8] 37.2 µM | [9] 13.2 µM | [10] 48.6 µM | [12] 96.4 µM | [13] 36 µM | [14] > 100 µM | [15] > 100 µM | [20] 89.7 µM | [16] > 100 µM | [18] > 100 µM | [19] 23.9 µM

CN1CCC[N+](C)=C1c1ccccc1
inactive: [1] > 100 µM | [2] 37.2 µM | [3] > 100 µM | [4] > 100 µM | [5] > 100 µM | [6] > 100 µM | [7] > 100 µM | [8] > 100 µM | [9] > 100 µM | [10] > 100 µM | [11] > 100 µM | [12] > 100 µM | [13] > 100 µM | [14] > 100 µM | [15] > 100 µM | [20] > 100 µM | [16] > 100 µM | [17] > 100 µM | [19] > 100 µM

NC(=O)C(=O)c1ncn(Cc2ccccc2)c1N
inactive: [1] > 100 µM | [2] > 100 µM | [3] > 100 µM | [4] > 100 µM | [5] > 100 µM | [6] > 100 µM | [7] > 100 µM | [8] > 100 µM | [9] > 100 µM | [10] > 100 µM | [12] > 100 µM | [13] > 100 µM | [14] > 100 µM | [15] > 100 µM | [20] > 100 µM | [16] > 100 µM | [17] > 100 µM | [18] > 100 µM

CC(=O)/C(=C/N1CCNC1=S)C(=O)Nc1ccccc1C
inactive: [1] > 100 µM | [2] > 100 µM | [3] > 100 µM | [4] > 100 µM | [5] > 100 µM | [6] > 100 µM | [8] > 100 µM | [9] > 100 µM | [10] > 100 µM | [11] > 100 µM | [12] > 100 µM | [13] > 100 µM | [14] > 100 µM | [15] > 100 µM | [20] > 100 µM | [16] > 100 µM | [17] > 100 µM | [18] > 100 µM | [19] > 100 µM

CCN(CC)Cc1sc2nc3ccccc3n2c1-c1ccc(OC)cc1
inactive: [1] 35.2 µM | [2] 22.9 µM | [3] 31.8 µM | [4] 17.1 µM | [5] 21.5 µM | [6] 27.6 µM | [7] 20.9 µM | [8] 23 µM | [9] 60.4 µM | [10] 3.05 µM | [11] 19.6 µM | [12] 22.8 µM | [13] 26.9 µM | [14] 53.2 µM | [15] 24.3 µM | [20] 24.5 µM | [16] 43.4 µM | [18] 34.8 µM | [19] 5.28 µM

CCCCOc1ccc(CC(NC(=O)OC(C)(C)C)C(=O)NC(C)C(=O)NC(Cc2ccccc2)C(=O)NCC(N)=O)cc1 (stereo not drawn) (Boc-Y(nBu)AFG-NH2; configuration not given here)
inactive: [1] > 100 µM | [2] > 100 µM | [3] > 100 µM | [4] 24.3 µM | [5] > 100 µM | [7] 22 µM | [8] 41.1 µM | [9] 82.4 µM | [10] > 100 µM | [11] 23 µM | [12] > 100 µM | [13] > 100 µM | [14] > 100 µM | [15] > 100 µM | [20] > 100 µM | [16] 18.7 µM | [17] > 100 µM | [18] > 100 µM | [19] > 100 µM
